{"source": "patent US7638306B2", "about": "“Process of increasing cellular production of biologically active compounds” (Fermalogic, Inc., priority 2003, dated 2009)", "key": {"[1]": {"system": "wild type A. erythreum", "experiment": "growth inhibition of wild type A. erythreum by kanamycin", "assay_type": "cell-based, Aeromicrobium erythreum"}, "[2]": {"system": "A. erythreum mutants containing the aph1 gene", "details": "aphI (aph1) gene from Tn903 expressed in A. erythreum", "description": "E. coli library of A. erythreum genomic DNA. The plasmid library was constructed in the A. erythreum integration vector pFL2082, a pUC19-derived vector containing the aphI gene from Tn903. […] Several different vector preparations were dephosphorylated with different concentrations of CIAP or SAP in order to obtain the highest ratio of white to blue colonies after ligation. […] To generate a library that represented in excess of 5-fold coverage of the chromosome (estimated A. erythreum genome size somewhere between 4-8 Mb, representing about 4,000-8,000 coding sequences), 100,000 white colonies were harvested into 25 pools. This large number of colonies was chosen based on the assumption that some genes will be disproportionately represented over others after selection in E. coli. The colonies were split among 25 pools (ca. 4,000 colonies/pool) to increase randomness. To determine the insert size of random plasmid isolates a total of 65 white colonies were analyzed by restriction analysis of their plasmid DNA. […] This library was designated A. erythreum genomic library or library 1.\nTo generate a gene replacement library we developed a rapid, simple visual screen that took advantage of the Kn^r phenotype of single crossover mutants and the Kn^s phenotype of gene replacement mutants. […]"}}, "note": "Counter-ions that a name gives are not always drawn.", "data": [{"smiles": "NC[C@H]1O[C@H](O[C@H]2[C@H](O)[C@@H](O[C@H]3O[C@H](CO)[C@@H](O)[C@H](N)[C@H]3O)[C@H](N)C[C@@H]2N)[C@H](O)[C@@H](O)[C@@H]1O", "note": "[Kanamycin sulfate]", "values": [{"measurement": "kanamycin concentration to which A. erythreum is sensitive (growth inhibited)", "setting": "[1]", "value": "≥ 5", "unit": "µg/mL"}]}, {"smiles": "NC[C@H]1O[C@H](O[C@H]2[C@H](O)[C@@H](O[C@H]3O[C@H](CO)[C@@H](O)[C@H](N)[C@H]3O)[C@H](N)C[C@@H]2N)[C@H](O)[C@@H](O)[C@@H]1O", "note": "[kanamycin]", "values": [{"measurement": "kanamycin concentration to which A. erythreum is sensitive (growth inhibited)", "setting": "[1]", "value": "≥ 2", "unit": "µg/mL"}, {"measurement": "kanamycin concentration up to which resistance is conferred with good growth", "setting": "[2]", "value": "10 to 15", "unit": "µg/mL"}]}]}
